# Patent US9956293B2, “Targeted therapeutics” (Madrigal Pharmaceuticals, Inc., priority 2014, dated 2018)
# System: HER2
# Assay: HER2 degradation assay with BT-474 cell line (Example 12, FACS)
# Format: cell-based
# Settings: Homo sapiens, BT-474; SDC-TRAPs of the 43rd table
# From the text: HER2 Degradation Assay with BT-474 Cell Line
# HER2 has emerged as a key target for anticancer drugs due to its intrinsic involvement in the phosphatidylinositol-3-kinase-Akt/protein kinase B (PI3K-Akt) and the mitogen-activated protein kinase (MAPK) pathways, both of which suppress apoptosis and promote tumor cell survival, gene transcription, angiogenesis, cellular proliferation, migration, mitosis, and differentiation. The degradation of HER2 is a measure of efficacy of anticancer therapeutics that target Hsp90. Accordingly, the SDC-TRAP molecules of the invention that comprise a binding moiety that binds Hsp90 were tested in the following HER2 degradation assay.
# BT-474 cells (human breast cancer cell line ATCC HTB-20) were obtained from ATCC and seeded into 12-well tissue culture plates at 0.2×10^6/1.8 mL/well. […] Each test compound was titrated in 4-fold dilutions from 5 μM to 78 nM with DMSO and 200 μL of the titration was added to each well of the cell plate. The DMSO final concentration was 0.2%. Cells were incubated overnight at 37° C. in 5% CO2.
# Media was decanted from the plate, cells were washed 1× in PBS. 400 μL trypsin (EDTA) per well was added, and the cells were incubated for 2 to 3 minutes. Cells were collected into FACS tubes containing 1 ml culture medium to neutralize the trypsin and were centrifuged for 5 minutes at 1200 rpm. Supernatant was decanted and the cells were resuspended in 5 μL FITC (anti HER2/nu)/200 μL staining buffer (1×PBS+1% FBS+0.05% Sodium Azide)/tube. Controls were […] IgG isotype control and staining buffer only. Tubes were incubated for 30 minutes in the dark at room temperature. 1 mL staining buffer was added to each tube and the tubes were centrifuged for 6 minutes at 1200 rpm. The supernatant was decanted and 300 μL staining buffer was added to each tube, which was store at 4° C. for FACS (cytometer) analysis. The cytometer readout was normalized and the potency of each compound is evaluated with IC50 calculated with XLfit™ software.
row,Compound,IC50 [nM]
1,"CCc1c2c(nc3ccc(O)cc13)-c1cc3c(c(=O)n1C2)COC(=O)C3(CC)OC(=O)N(C)CCCCN1CCN(Cc2ccc(-n3c(O)nnc3-c3cc(C(C)C)c(O)cc3O)cc2)CC1 (centres unmarked) [SDC-TRAP-0055, 4,11-diethyl-9-hydroxy-3,14-dioxo-3,4,12,14-tetrahydro-1H-pyrano[3′,4′:6,7]indolizino[1,2-b]quinolin-4-yl (4-(4-(4-(3-(2,4-dihydroxy-5-isopropylphenyl)-5-hydroxy-4H-1,2,4-triazol-4-yl)benzyl)piperazin-1-yl)butyl)(methyl)carbamate]",402
2,"CCc1c2c(nc3ccc(OCCN4CCN(c5ccc(-n6c(O)nnc6-c6cc(C(C)C)c(O)cc6O)cc5)CC4)cc13)-c1cc3c(c(=O)n1C2)COC(=O)C3(O)CC (centres unmarked) [SDC-TRAP-0057, 9-(2-(4-(4-(3-(2,4-dihydroxy-5-isopropylphenyl)-5-hydroxy-4H-1,2,4-triazol-4-yl)phenyl)piperazin-1-yl)ethoxy)-4,11-diethyl-4-hydroxy-1H-pyrano[3′,4′:6,7]indolizino[1,2-b]quinoline-3,14(4H,12H)-dione]",449
3,"CCc1c2c(nc3ccc(OCCn4ccc5cc(-n6c(O)nnc6-c6cc(C(C)C)c(O)cc6O)ccc54)cc13)-c1cc3c(c(=O)n1C2)COC(=O)C3(O)CC (centres unmarked) [SDC-TRAP-0058, 9-(2-(5-(3-(2,4-dihydroxy-5-isopropylphenyl)-5-hydroxy-4H-1,2,4-triazol-4-yl)-1H-indol-1-yl)ethoxy)-4,11-diethyl-4-hydroxy-1H-pyrano[3′,4′:6,7]indolizino[1,2-b]quinoline-3,14(4H,12H)-dione]",2930

# Same assay, conditions: Homo sapiens; BT-474 cells
row,IC50 [nM],Compound
1,> 5000,"CC(C)c1cc(-c2nnc(O)n2-c2ccc3c(ccn3CCNC(=O)Cn3cc(F)c(=O)[nH]c3=O)c2)c(O)cc1O [SDC-TRAP-0013, N-(2-(5-(3-(2,4-dihydroxy-5-isopropylphenyl)-5-hydroxy-4H-1,2,4-triazol-4-yl)-1H-indol-1-yl)ethyl)-2-(5-fluoro-2,4-dioxo-3,4-dihydropyrimidin-1(2H)-yl) acetamide]"
2,> 5000,"CC(C)c1cc(-c2nnc(O)n2-c2ccc3c(ccn3CCOCCN(C)C(=O)CCn3cc(F)c(=O)[nH]c3=O)c2)c(O)cc1O [SDC-TRAP-0050, N-(2-(2-(5-(3-(2,4-dihydroxy-5-isopropylphenyl)-5-hydroxy-4H-1,2,4-triazol-4-yl)-1H-indol-1-yl)ethoxy)ethyl)-3-(5-fluoro-2,4-dioxo-3,4-dihydropyrimidin-1(2H)-yl)-N-methylpropanamide]"
3,> 5000,"CC(C)c1cc(-c2nnc(O)n2-c2ccc3c(ccn3CCN(C)C(=O)CCn3cc(F)c(=O)[nH]c3=O)c2)c(O)cc1O [SDC-TRAP-0051, N-(2-(5-(3-(2,4-dihydroxy-5-isopropylphenyl)-5-hydroxy-4H-1,2,4-triazol-4-yl)-1H-indol-1-yl)ethyl)-3-(5-fluoro-2,4-dioxo-3,4-dihydropyrimidin-1(2H)-yl)-N-methylpropanamide]"

# Further lines, the molecule ahead of its results:
row,Compound,IC50 [nM]
1,"CC(C)c1cc(-c2nnc(O)n2-c2ccc3c(ccn3CCOCCNC(=O)CCn3cc(F)c(=O)[nH]c3=O)c2)c(O)cc1O [SDC-TRAP-0048, N-(2-(2-(5-(3-(2,4-dihydroxy-5-isopropylphenyl)-5-hydroxy-4H-1,2,4-triazol-4-yl)-1H-indol-1-yl)ethoxy)ethyl)-3-(5-fluoro-2,4-dioxo-3,4-dihydropyrimidin-1(2H)-yl)propanamide]",> 5000
2,"CC(C)c1cc(-c2nnc(O)n2-c2ccc(CN3CCN(C(=O)CCn4cc(F)c(=O)[nH]c4=O)CC3)cc2)c(O)cc1O [SDC-TRAP-0049, 1-(3-(4-(4-(3-(2,4-dihydroxy-5-isopropylphenyl)-5-hydroxy-4H-1,2,4-triazol-4-yl)benzyl)piperazin-1-yl)-3-oxopropyl)-5-fluoropyrimidine-2,4(1H,3H)-dione]",> 5000
